target: T1, p53 Y220C (Homo sapiens, UniProt P04637, Y220C); assay: In vitro DNA binding activity assay (HTRF / TR-FRET): stabilization of p53 Y220C and increase of its DNA binding activity; assay type: biochemical; settings: recombinant His-tagged p53 Y220C DNA binding domain (aa 94-312), biotin-labeled consensus DNA, incubated at 27° C. or 29° C. for 60 min
T1 construct: The recombinant protein was a truncation mutant containing only amino acids 94-312 of p53; made in house; host or cells: E. coli
T1 sequence (P04637 94-312, change not shown): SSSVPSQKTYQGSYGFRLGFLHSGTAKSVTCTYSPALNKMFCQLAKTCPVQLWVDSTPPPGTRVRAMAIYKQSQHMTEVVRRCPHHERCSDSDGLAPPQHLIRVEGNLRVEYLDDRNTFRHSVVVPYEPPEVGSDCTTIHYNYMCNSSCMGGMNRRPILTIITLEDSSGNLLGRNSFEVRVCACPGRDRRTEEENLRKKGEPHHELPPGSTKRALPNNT
In short: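 E. coli His-p53 Y220C + biotin consensus DNA; anti-His-APC/SA-Eu TR-FRET. SC150 vs no-compound.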

SC150 (concentration of the compound required to increase the DNA binding activity by 50%), ++++ (++++ = 0.2 μM ≤ SC150 < 1 μM):
CCCn1c(C#CCNc2c(F)cc(S(C)(=O)=O)cc2OC)cc2c(N[C@H]3CCN(C[C@@H](O)COC)C[C@H]3F)cccc21 [Compound 880A]

SC150 (concentration of the compound required to increase the DNA binding activity by 50%), + (+ = 0 μM ≤ SC150 < 0.05 μM):
COc1cc(S(C)(=O)=O)ccc1NCC#Cc1cc2c(N[C@@H]3CCN(C(=O)CN(C)C)C[C@@H]3F)cccc2n1CC(F)(F)F [Compound 855A, 2-(dimethylamino)-1-[(3S,4R)-3-fluoro-4-[(2-{3-[(4-methanesulfonyl-2-methoxyphenyl)amino]prop-1-yn-1-yl}-1-(2,2,2-trifluoroethyl)-1H-indol-4-yl)amino]piperidin-1-yl]ethan-1-one]
COc1cc(S(C)(=O)=O)ccc1NCC#Cc1cc2c(N[C@H]3CCN(C(=O)CN(C)C)C[C@H]3F)cccc2n1CC(F)(F)F [Compound 856A, 2-(dimethylamino)-1-[(3R,4S)-3-fluoro-4-[(2-{3-[(4-methanesulfonyl-2-methoxyphenyl)amino]prop-1-yn-1-yl}-1-(2,2,2-trifluoroethyl)-1H-indol-4-yl)amino]piperidin-1-yl]ethan-1-one]
CNC(=O)c1ccc(NCC#Cc2cc3c(N[C@@H]4CCNC[C@@H]4F)cccc3n2CC(F)(F)F)c(OC)c1 [Compound 857A]
COc1cc(C(=O)O)ccc1NCC#Cc1cc2c(N[C@@H]3CCNC[C@@H]3F)cccc2n1CC(F)(F)F [Compound 858A]
COCCN1CC[C@@H](Nc2cccc3c2cc(C#CCNc2ccc(S(C)(=O)=O)cc2OC)n3CC(F)(F)F)[C@@H](F)C1 [Compound 859A, N-[(3S,4R)-3-fluoro-1-(2-methoxyethyl)piperidin-4-yl]-2-{3-[(4-methanesulfonyl-2-methoxyphenyl)amino]prop-1-yn-1-yl}-1-(2,2,2-trifluoroethyl)-1H-indol-4-amine]
COCCN1CC[C@H](Nc2cccc3c2cc(C#CCNc2ccc(S(C)(=O)=O)cc2OC)n3CC(F)(F)F)[C@H](F)C1 [Compound 860A, N-[(3R,4S)-3-fluoro-1-(2-methoxyethyl)piperidin-4-yl]-2-{3-[(4-methanesulfonyl-2-methoxyphenyl)amino]prop-1-yn-1-yl}-1-(2,2,2-trifluoroethyl)-1H-indol-4-amine]
COc1cc(S(C)(=O)=O)ccc1NCC#Cc1cc2c(N[C@@H]3CCN(C(C)=O)C[C@@H]3F)cccc2n1CC(F)(F)F [Compound 862A, 1-[(3S,4R)-3-fluoro-4-[(2-{3-[(4-methanesulfonyl-2-methoxyphenyl)amino]prop-1-yn-1-yl}-1-(2,2,2-trifluoroethyl)-1H-indol-4-yl)amino]piperidin-1-yl]ethan-1-one]
COc1cc(S(C)(=O)=O)ccc1NCC#Cc1cc2c(N[C@H]3CCN(C(C)=O)C[C@H]3F)cccc2n1CC(F)(F)F [Compound 863A, 1-[(3R,4S)-3-fluoro-4-[(2-{3-[(4-methanesulfonyl-2-methoxyphenyl)amino]prop-1-yn-1-yl}-1-(2,2,2-trifluoroethyl)-1H-indol-4-yl)amino]piperidin-1-yl]ethan-1-one]
CCC(=O)N1CC[C@@H](Nc2cccc3c2cc(C#CCNc2ccc(S(C)(=O)=O)cc2OC)n3CC(F)(F)F)[C@@H](F)C1 [Compound 864A, 1-[(3S,4R)-3-fluoro-4-[(2-{3-[(4-methanesulfonyl-2-methoxyphenyl)amino]prop-1-yn-1-yl}-1-(2,2,2-trifluoroethyl)-1H-indol-4-yl)amino]piperidin-1-yl]propan-1-one]
CCC(=O)N1CC[C@H](Nc2cccc3c2cc(C#CCNc2ccc(S(C)(=O)=O)cc2OC)n3CC(F)(F)F)[C@H](F)C1 [Compound 865A, 1-[(3R,4S)-3-fluoro-4-[(2-{3-[(4-methanesulfonyl-2-methoxyphenyl)amino]prop-1-yn-1-yl}-1-(2,2,2-trifluoroethyl)-1H-indol-4-yl)amino]piperidin-1-yl]propan-1-one]
COCC(=O)N1CC[C@@H](Nc2cccc3c2cc(C#CCNc2ccc(S(C)(=O)=O)cc2OC)n3CC(F)(F)F)[C@@H](F)C1 [Compound 866A, 1-[(3S,4R)-3-fluoro-4-[(2-{3-[(4-methanesulfonyl-2-methoxyphenyl)amino]prop-1-yn-1-yl}-1-(2,2,2-trifluoroethyl)-1H-indol-4-yl)amino]piperidin-1-yl]-2-methoxyethan-1-one]
COCC(=O)N1CC[C@H](Nc2cccc3c2cc(C#CCNc2ccc(S(C)(=O)=O)cc2OC)n3CC(F)(F)F)[C@H](F)C1 [Compound 867A, 1-[(3R,4S)-3-fluoro-4-[(2-{3-[(4-methanesulfonyl-2-methoxyphenyl)amino]prop-1-yn-1-yl}-1-(2,2,2-trifluoroethyl)-1H-indol-4-yl)amino]piperidin-1-yl]-2-methoxyethan-1-one]
COc1cc(C(N)=O)ccc1NCC#Cc1cc2c(N[C@H]3CCNC[C@H]3F)cccc2n1CC(F)(F)F [Compound 868A, 4-{[3-(4-{[(3R,4S)-3-fluoropiperidin-4-yl]amino}-1-(2,2,2-trifluoroethyl)-1H-indol-2-yl)prop-2-yn-1-yl]amino}-3-methoxybenzamide]
COC[C@H](O)CN1CC[C@@H](Nc2cccc3c2cc(C#CCNc2ccc(S(N)(=O)=O)cc2OC)n3CC(F)(F)F)[C@@H](F)C1 [Compound 869A, 4-{[3-(4-{[(3S,4R)-3-fluoro-1-[(2R)-2-hydroxy-3-methoxypropyl]piperidin-4-yl]amino}-1-(2,2,2-trifluoroethyl)-1H-indol-2-yl)prop-2-yn-1-yl]amino}-3-methoxybenzene-1-sulfonamide]
COc1cc(S(C)(=O)=O)ccc1NCC#Cc1cc2c(N[C@@H]3CCC4(C[C@@H]3F)OCCO4)cccc2n1CC(F)(F)F [Compound 870A, N-[(7S,8R)-7-fluoro-1,4-dioxaspiro[4.5]decan-8-yl]-2-{3-[(4-methanesulfonyl-2-methoxyphenyl)amino]prop-1-yn-1-yl}-1-(2,2,2-trifluoroethyl)-1H-indol-4-amine]
COC[C@H](O)CN1CC[C@@H](Nc2cccc3c2cc(C#CCNc2ccc(C(=O)OC)cc2OC)n3CC(F)(F)F)[C@@H](F)C1 [Compound 878A]
COC[C@H](O)CN1CC[C@H](Nc2cccc3c2cc(C#CCNc2ccc(C(=O)OC)cc2OC)n3CC(F)(F)F)[C@H](F)C1 [Compound 879A]
COc1cc(S(N)(=O)=O)ccc1NCC#Cc1cc2c(N[C@@H]3CCN(C[C@@H](O)CO)C[C@@H]3F)cccc2n1CC(F)(F)F [Compound 882A]
COc1cc(S(N)(=O)=O)ccc1NCC#Cc1cc2c(N[C@H]3CCN(C[C@H](COC(C)=O)OC(C)=O)C[C@H]3F)cccc2n1CC(F)(F)F [Compound 888A, (2R)-1-(acetyloxy)-3-[(3R,4S)-3-fluoro-4-[(2-{3-[(2-methoxy-4-sulfamoylphenyl)amino]prop-1-yn-1-yl}-1-(2,2,2-trifluoroethyl)-1H-indol-4-yl)amino]piperidin-1-yl]propan-2-yl acetate]
COc1cc(S(N)(=O)=O)ccc1NCC#Cc1cc2c(N[C@@H]3CCN(C[C@H](COC(C)=O)OC(C)=O)C[C@@H]3F)cccc2n1CC(F)(F)F [Compound 890A, (2R)-1-(acetyloxy)-3-[(3S,4R)-3-fluoro-4-[(2-{3-[(2-methoxy-4-sulfamoylphenyl)amino]prop-1-yn-1-yl}-1-(2,2,2-trifluoroethyl)-1H-indol-4-yl)amino]piperidin-1-yl]propan-2-yl acetate]
COc1cc(S(C)(=O)=O)ccc1NCC#Cc1cc2c(N[C@H]3CCN(C(=O)CN)C[C@H]3F)cccc2n1CC(F)(F)F [Compound 892A]
COc1cc(S(C)(=O)=O)ccc1NCC#Cc1cc2c(N[C@@H]3CCN(C(=O)CN)C[C@@H]3F)cccc2n1CC(F)(F)F [Compound 893A]
COc1cc(S(C)(=O)=O)ccc1NCC#Cc1cc2c(N[C@H]3CCN(C[C@@H](C)O)C[C@H]3F)cccc2n1CC(F)(F)F [Compound 894A, 1-[(3R,4S)-3-fluoro-4-[(2-{3-[(4-methanesulfonyl-2-methoxyphenyl)amino]prop-1-yn-1-yl}-1-(2,2,2-trifluoroethyl)-1H-indol-4-yl)amino]piperidin-1-yl]propan-2-ol]

— patent publication US12428406B2 (PMV Pharmaceuticals, Inc., priority 2019, dated 2025)
